Reference: PMC9822280, “A Rapid and Sensitive Liquid Chromatography-Tandem Mass Spectrometry Bioanalytical Method for the Quantification of Encorafenib and Binimetinib as a First-Line Treatment for Advanced (Unresectable or Metastatic) Melanoma—Application to a Pharmacokinetic Study” (Molecules, 2022)
Read-outs that look alike come from different tables or passages of the source.

Assays:
[1] = Pharmacokinetic study in rats after oral administration of binimetinib and encorafenib; format: in vivo; details: male, Wistar, rat plasma, oral 3.8 mg/kg binimetinib and 20 mg/kg encorafenib, fasting; for AUC(0-t) / AUC(0-inf) / Cmax / MRT inf / half-life: mean ± SD; for AUC(0-t): read-out: AUC0-t (area under the curve up to the last sampling time); for AUC(0-inf): read-out: AUC0-∞ (area under the curve extrapolated to infinity); for Cmax: read-out: Cmax (maximum plasma concentration); for MRT inf: read-out: MRT0-∞ (mean residence time); for half-life: read-out: t1/2kel (half-life in elimination phase) (converted); for Tmax: read-out: Tmax (time taken to reach the maximum plasma concentration)
Experimental: The newly developed and validated LC-MS/MS assay was effectively applied to evaluate BNB and ENF in rat plasma for a pharmacokinetic study after oral administration of 3.8 mg/kg BNB and 20 mg/kg ENF for four healthy male Wistar rats under fasting conditions. […] The values acquired in the current investigation for BNB for t1/2kel and Cl/F parameters are consistent with in vivo BNB PK studies. Furthermore, the Tmax parameter for BNB is similar to that represented in a recently published paper.
Four healthy male Wistar rats (220–250 g) were brought from the Animal Care Center of King Saud University (Saudia Arabia). All experimental procedures were reviewed in accordance with the guidelines of King Saud University Institutional Research Ethics Committee (REC) with an ethics reference number (SE-19–109). Rats were acclimatized for 7 days to laboratory environments before the experiment was directed. Diet was prohibited for 12 h before the experiment, but the water was freely available. The dose of drugs was determined according to the body surface area employing the below-mentioned formula [22]. Human dose (mg/kg) = Animal dose (mg/kg) × animal Km/Human Km
Km is a factor used in dose conversion. It is a ratio of average body weight (kg) and body surface area (m^2). Km values for the rat and human are 6 and 37, respectively. Human dose for BNB and ENF was considered as 90 and 450 mg, respectively.
Blood samples (300 μL) were collected into heparinized 1.5 mL polythene tubes containing ethylenediamine tetraacetic acid dipotassium (EDTA K2) (anticoagulant) before drug administration and at 0.15, 0.5, 1, 2, 4, 6, 8, 12, 18, and 24 h after oral administration of binimetinib (3.8 mg/kg) and encorafenib (20 mg/kg). In the current study, both drugs were dissolved in 1% DMSO/saline. The samples were directly centrifuged at 3500 rpm for 10 min at 4 °C. The plasma obtained was stored at −80 °C until analysis. The same method of extraction described under calibration standards preparation (2.4.) was used for sample preparation. The PK parameters of BNB and ENF such as Cmax, Tmax, t1/2kel, AUC0–24, and AUC0–∞ were calculated by fitting the data to a non-compartmental analysis (NCA) model with PK Solver Add-In software.

[2] = Stability of binimetinib and encorafenib in rat plasma under different storage conditions; format: in vitro ADME; details: for recovery at 24 h, 2400 ng/mL / recovery at 2400 ng/mL / recovery at 30 days, 2400 ng/mL: HQC 2400 ng/mL; for recovery at 2400 ng/mL / recovery at 1.5 ng/mL / recovery at 1800 ng/mL: n 3, read-out: Freeze and Thaw Stability at −80 °C (3 Cycles), Recovery (%); for recovery at 30 days, 2400 ng/mL / recovery at 30 days, 1.5 ng/mL / recovery at 30 days, 1800 ng/mL: n 3, read-out: Long Term Stability at −80 °C (30 Days), Recovery (%); for recovery at 24 h, 1.5 ng/mL / recovery at 1.5 ng/mL / recovery at 30 days, 1.5 ng/mL: LQC 1.5 ng/mL; for recovery at 24 h, 1800 ng/mL / recovery at 1800 ng/mL / recovery at 30 days, 1800 ng/mL: MQC 1800 ng/mL
Experimental: An important process of bioanalytical method validation is stability assessment. Stability of BNB and ENF was studied throughout the analysis of three QC samples (LQC, MQC and HQC) of each drug after the application of the different storage conditions. The different parameters investigated include short-term stability at room temperature for 24 h, autosampler stability at 10 °C for 24 h, three freeze and thaw cycles after storing at −80 °C, and long-term stability at −80 °C for 30 days. The results of stability experiments were satisfactory and complied with the accuracy criteria of ±15% of its theoretical concentration.
The stability of ENF and BNB was assessed after exposing the QC samples at LQC, MQC, and HQC to different storage conditions (temperature and time). The applied conditions include short-term stability at room temperature for 24 h in an autosampler for 24 h at 10 °C. Long-term stability was assessed after storing QCs for 30 days at −80 °C. Freeze and thaw stability were evaluated after three freezing and thawing cycles and compared with freshly prepared QCs. Moreover, the stock solution stability for ENF and BNB and IS was studied at a temperature of 5 ± 2 °C. All sample accuracies should be ± 15% to be considered stable.

[3] = n 3, read-out: Autosampler Stability at 10 °C (24 h), Recovery (%)
[4] = n 3, read-out: Short Term Stability at Room Temperature (24 h), Recovery (%)

Row | SMILES | AUC(0-t) [1] | AUC(0-inf) [1] | Cmax [1] | MRT inf [1] | half-life [1] | Tmax [1] | recovery at 24 h, 2400 ng/mL [2, 3] | recovery at 2400 ng/mL [2] | recovery at 30 days, 2400 ng/mL [2] | recovery at 24 h, 2400 ng/mL [2, 4] | recovery at 24 h, 1.5 ng/mL [2, 3] | recovery at 1.5 ng/mL [2] | recovery at 30 days, 1.5 ng/mL [2] | recovery at 24 h, 1.5 ng/mL [2, 4] | recovery at 24 h, 1800 ng/mL [2, 3] | recovery at 1800 ng/mL [2] | recovery at 30 days, 1800 ng/mL [2] | recovery at 24 h, 1800 ng/mL [2, 4]
1 | Cn1cnc2c(F)c(Nc3ccc(Br)cc3F)c(C(=O)NOCCO)cc21 [Binimetinib, binimetinib] | 12400 ± 1860 ng·h/mL | 18200 ± 1310 ng·h/mL | 3430 ± 460 ng/mL | 4.5 ± 0.28 h | 3.39 ± 0.43 h | 1 h | 95.4% | 95.2% | 94.8% | 93.4% | 97.3% | 104% | 95.5% | 96.2% | 104% | 104% | 104% | 103%
2 | COC(=O)N[C@@H](C)CNc1nccc(-c2cn(C(C)C)nc2-c2cc(Cl)cc(NS(C)(=O)=O)c2F)n1 [Encorafenib, encorafenib] | 30300 ± 3010 ng·h/mL | 36500 ± 3920 ng·h/mL | 16400 ± 1470 ng/mL | 3.23 ± 0.4 h | 2.48 ± 0.24 h | 1 h | 92.4% | 96.5% | 94.6% | 94.5% | 96.6% | 99.5% | 97.5% | 95.2% | 99.8% | 96.8% | 102% | 103%
